Measured values published in US12636317B2, “Manipulation and use of antigen-specific regulatory T cells” (The Board of Trustees of the Leland Stanford Junior …, priority 2019, dated 2026).

How the values were obtained:
[1] = system: MOG35-55 specific CD4+ T cells; assay: Tetramer enrichment of MOG35-55 I-Ab specific CD4+ T cells from spleen and LN after immunization; assay type: in vivo, C57BL/6J mice; details: D10 after immunization
[2] = system: experimental autoimmune encephalomyelitis (EAE); assay: Induction and evaluation of EAE (clinical scores); assay type: in vivo, C57BL/6J mice
[3] = system: MOG35-55 specific CD4+ T cells; assay: In vitro proliferation/suppression assay (CTV dilution); assay type: cell-based, mouse; details: CD4+ T cells from MOG immunized mice stimulated with MOG35-55
Method: In vitro proliferation/suppression assay. Spleen and LN cells were harvested from WT or immunized mice. Single cell suspensions were prepared, and RBCs were lysed using Ack lysis buffer (ThermoFisher scientific A1049201). […] Post CD4+ T cell enrichment, cells were counted and labelled with CellTrace™ Violet Dye (ThermoFisher scientific C34557) according to manufacturer instructions.
In vitro proliferation/suppression assays were set up according to previously published protocol. Briefly, labelled CD4+ T cells were co-cultured either with CD8+ T cells (1:1 ratio, 0.25×10^6 cells/well) or without CD8+ T cells in the presence of pan DC's (0.75×10^6 cells/well). In some of the suppression experiments cells were pre-included with 10 μg/ml of anti-Qa-1b neutralizing antibody (6A8.6F10.1A16, BD Biosciences). Cells were cultured in a total volume of 200 μl in a 96-well round bottom plate. The CD4+ T cells were stimulated with either MOG35-55 or not. On day 7, the cells were washed and stained with surface antibodies and analyzed on LSR II (Becton Dickinson).

SP specific CD8+ T cells = assay: Tetramer enrichment of SP-specific CD8+ T cells from spleen and LN after immunization; assay type: in vivo, C57BL/6J mice; details: 10D PI
[4] = system: ovalbumin specific TCR (OT-1) expressed in 58 αβ−/− cells; assay: T cell stimulation assay (CD69) with peptide- or protein-pulsed BMDCs; assay type: cell-based, mouse; details: co-culture with loaded BMDCs
Method: T cell stimulation assays. T cell stimulation assays were performed as previously described. All the T cell peptide stimulation experiments were done in 96 well round bottom plates with a 200 μl total volume. T2, K562 cells or BMDCs were pulsed with 10-100 μg of the peptides for 45 minutes, washed once and plated (10,000 cells/well). Cell lines expressing TCRs (100,000 cells/well) were co-cultured with APCs for 18 hr. At the end of stimulation, cells were harvested, washed, and stained with TCRβ, human CD3, and CD69 and analyzed on LSR II (Becton Dickinson) for activation.

EAE7-CD8 TCR = assay type: binding, mouse; details: Jurkat αβ−/− cells, H2-Db tetramer
EAE6-CD8 TCR = assay type: binding, mouse; details: Jurkat αβ−/− cells, H2-Db tetramer
6218 TCR = assay type: binding, mouse; details: Jurkat αβ−/− cells, H2-Db tetramer
[5] = target: T1, yeast H2-Db library peptide enriched by the EAE7-CD8 TCR peptide on H2-Db (mouse); assay: binding, other
T1 peptide: TRLVNDVDL

[6] = target: T2, yeast H2-Db library peptide enriched by the EAE7-CD8 TCR peptide on H2-Db (mouse); assay: binding, other
T2 peptide: QRHENLHRM

[7] = target: T3, yeast H2-Db library peptide enriched by the EAE7-CD8 TCR peptide on H2-Db (mouse); assay: binding, other
T3 peptide: RRILNLGGM

[8] = target: T4, yeast H2-Db library peptide enriched by the EAE7-CD8 TCR peptide on H2-Db (mouse); assay: binding, other
T4 peptide: WSLRNLVML

[9] = target: T5, yeast H2-Db library peptide enriched by the EAE7-CD8 TCR peptide on H2-Db (mouse); assay: binding, other
T5 peptide: TCAYNPRGM

[10] = target: T6, yeast H2-Db library peptide enriched by the EAE7-CD8 TCR peptide on H2-Db (mouse); assay: binding, other
T6 peptide: RDVHNPDVI

[11] = target: T7, surrogate peptide (SP) from the yeast H2-Db library; no match in the mouse genome peptide on H2-Db (mouse); assay: multimer staining
T7 peptide: YQPGNWEYI

[12] = target: T8, surrogate peptide (SP) from the yeast H2-Db library; no match in the mouse genome peptide on H2-Db (mouse); assay: multimer staining
T8 peptide: HDRVNWEYI

[13] = target: T9, myelin oligodendrocyte glycoprotein (MOG); the tetramer is called MOG35-55 I-Ab in the results peptide on … (mouse); assay: multimer staining
T9 peptide: GWYRSPFSRVV

[14] = target: T10, yeast H2-Db library peptide enriched by the EAE6-CD8 TCR peptide on H2-Db (mouse); assay: binding, other
T10 peptide: NHRNNRYFFL

[15] = target: T11, yeast H2-Db library peptide enriched by the EAE6-CD8 TCR peptide on H2-Db (mouse); assay: binding, other
T11 peptide: NHRTNRYFFL

[16] = target: T12, yeast H2-Db library peptide enriched by the EAE6-CD8 TCR peptide on H2-Db (mouse); assay: binding, other
T12 peptide: FQRGNRLMWL

[17] = target: T13, yeast H2-Db library peptide enriched by the EAE6-CD8 TCR peptide on H2-Db (mouse); assay: binding, other
T13 peptide: GTEFNHWAAI

[18] = target: T14, yeast H2-Db library peptide enriched by the EAE6-CD8 TCR peptide on H2-Db (mouse); assay: binding, other
T14 peptide: ASIANWPLAI

[19] = target: T15, surrogate peptide (SP) from the yeast H2-Db library; no match in the mouse genome peptide on H2-Db (mouse); assay: multimer staining
T15 peptide: SMRPNHFFFL

[20] = target: T16, surrogate peptide (SP) from the yeast H2-Db library; no match in the mouse genome peptide on H2-Db (mouse); assay: multimer staining
T16 peptide: ASRSNRYFWL

[21] = Table 6, MOG35-55 with or without SP, mean ± SEM
[22] = Table 6, immunization with MOG35-55, CFA and PTX with or without SP, n=10
[23] = Table 7, MOG, SP challenge, MOG challenge (challenge seven days after first immunization), n=10
[24] = Table 7, challenge seven days after first immunization, affected if clinical scores ≥1 for ≥2 consecutive days
[25] = Table 7, challenge seven days after first immunization, mean ± SEM
[26] = MOG+SP immunization, spleen and LN
[27] = SP immunization in comparison to WT mice

MOG35-55: EAE-inducing myelin oligodendrocyte glycoprotein peptide 35-55 (MEVGWYRSPFSRVVHLYRNGK; UniProt Q61885 63-83, looked up, fragment)
frequency/number of MOG35-55 I-Ab tetramer+ CD4+ T cells [1]: elicited | frequency/number of MOG35-55 I-Ab tetramer+ CD4+ T cells ([1]; listed as MOG): increase | incidence of EAE disease (of the mice) ([2]; MOG immunization with or without SP): 100% | CDS, cumulative disease score [2, 21]: 46.3 ± 5.9 | DA, days affected [2, 21]: 16.3 ± 0.7 | DO, day of onset in affected animals [2, 21]: 13.8 ± 0.2 | PS, peak score [2, 21]: 3.2 ± 0.4 | SI, severity index (cumulative disease score/days affected) [2, 21]: 3 ± 0.4 | Incidence (affected/total) [2, 22]: 10/10 | Incidence, percentage affected [2, 22]: 100% | Incidence (affected/total) [2, 23]: 10/10 | Incidence, percentage affected [2, 24]: 100% | CDS, cumulative disease score over 30 days of experiment [2, 25]: 55.8 ± 3.9 | DA, days affected [2, 25]: 17 ± 0.3 | DO, day of onset in affected animals [2, 25]: 13.3 ± 0.3 | PS, peak score [2, 25]: 4 ± 0.1 | SI, severity index (cumulative disease score/days affected) [2, 25]: 3.14 ± 0.2 | CD4+ T cell proliferation in the absence of CD8+ T cells [3]: proliferated robustly | SP specific CD8+ T cells detected (SP specific CD8+ T cells; MOG35-55 immunized mice): very few

SIINFEKL [ovalbumin derived peptide]
activation (CD69) of OT-1 TCR cells [4]: robust activation

MOG challenge: mice immunized with SP, then challenged with MOG35-55 seven days after immunization (MEVGWYRSPFSRVVHLYRNGK; UniProt Q61885 63-83, looked up, fragment)
Incidence (affected/total) [2, 23]: 6/10 | Incidence, percentage affected [2, 24]: 60% | CDS, cumulative disease score over 30 days of experiment [2, 25]: 43.3 ± 5.3 | DA, days affected [2, 25]: 8.2 ± 2.5 | DO, day of onset in affected animals [2, 25]: 10 ± 2.8 | PS, peak score [2, 25]: 1.5 ± 0.4 | SI, severity index (cumulative disease score/days affected) [2, 25]: 1.29 ± 0.3

HDRVNWEYI [36th enriched peptide for EAE7-CD8 TCR]
pMHC tetramer staining of EAE7-CD8 TCR cells (EAE7-CD8 TCR): robust tetramer staining | frequency of CD8+ T cells specific for the peptide (SP specific CD8+ T cells; [26]): increased | frequency of CD8+ T cells specific for the peptide (SP specific CD8+ T cells; [27]): higher frequency

ASRSNRYFWL [surrogate peptide for EAE6-CD8 TCR from H2-Db yeast library]
pMHC tetramer staining of EAE6-CD8 TCR cells (EAE6-CD8 TCR): robust staining | frequency of CD8+ T cells specific for the peptide (SP specific CD8+ T cells; [26]): increased | frequency of CD8+ T cells specific for the peptide (SP specific CD8+ T cells; [27]): no change

SSLENFRAYV [H2-Db-restricted acid polymerase peptide 224-233, ligand of 6218 TCR]
pMHC tetramer staining of 6218 TCR cells (6218 TCR): robust staining

SMRPNHFFFL [surrogate peptide for EAE6-CD8 TCR from H2-Db yeast library]
pMHC tetramer staining of EAE6-CD8 TCR cells (EAE6-CD8 TCR): robust staining | frequency of CD8+ T cells specific for the peptide (SP specific CD8+ T cells; [26]): increased | frequency of CD8+ T cells specific for the peptide (SP specific CD8+ T cells; [27]): higher frequency

YQPGNWEYI [top enriched surrogate peptide for EAE7-CD8 TCR]
pMHC tetramer staining of EAE7-CD8 TCR cells (EAE7-CD8 TCR): robust staining | frequency of CD8+ T cells specific for the peptide (SP specific CD8+ T cells; [27]): no change

B1: EAE7-CD8 (TCR)
alpha mTRAV5D-4 mTRAJ45 CDR3: CAASVNTEGADRLTF
beta mTRBV15 mTRBJ1-1 CDR3: CASTNRGEVFF
binding result [5]: recognises | binding result [6]: recognises | binding result [7]: recognises | binding result [8]: recognises | binding result [9]: recognises | binding result [10]: recognises | binding result [11]: recognises | binding result [12]: recognises

B2: ovalbumin protein: whole OVA protein (protein, UniProt P01012 2-386, looked up)
Ovalbumin: GSIGAASMEFCFDVFKELKVHHANENIFYCPIAIMSALAMVYLGAKDSTRTQINKVVRFDKLPGFGDSIEAQCGTSVNVHSSLRDILNQITKPNDVYSFSLASRLYAEERYPILPEYLQCVKELYRGGLEPINFQTAADQARELINSWVESQTNGIIRNVLQPSSVDSQTAMVLVNAIVFKGLWEKAFKDEDTQAMPFRVTEQESKPVQMMYQIGLFRVASMASEKMKILELPFASGTMSMLVLLPDEVSGLEQLESIINFEKLTEWTSSNVMEERKIKVYLPRMKMEEKYNLTSVLMAMGITDVFSSSANLSGISSAESLKISQAVHAAHAEINEAGREVVGSAEAGVDAASVSEEFRADHPFLFCIKHIATNAVLFFGRCVSP
activation (CD69) of OT-1 TCR cells [4]: robustly stimulated

B3: EAE2-CD4 (TCR)
alpha mTRAV12-1 mTRAJ23 CDR3: CALRNYNQGKLIF
beta mTRBV16 mTRBJ1-4 CDR3: CASSLDQGWDERLFF
binding result [13]: recognises

B4: EAE3-CD4 (TCR)
alpha mTRAV14D-1 mTRAJ43 CDR3: CAASGANNNNAPRF
beta mTRBV3 mTRBJ2-5 CDR3: CASSLEGHQDTQYF
binding result [13]: recognises

B5: EAE6-CD8 (TCR)
alpha mTRAV12-1 mTRAJ31 CDR3: CALSDYNRIFF
beta mTRBV19 mTRBJ2-3 CDR3: CASSITPLGGLETLYF
binding result [14]: recognises | binding result [15]: recognises | binding result [16]: recognises | binding result [17]: recognises | binding result [18]: recognises | binding result [19]: recognises | binding result [20]: recognises
